Results as given in US12077503B2, “Substituted cyclic amides and their use as herbicides” (FMC CORPORATION, priority 2015, dated 2024).

Columns and labels:
Type in all cases: in vivo
[1] = tested on: pigweed (Amaranthus retroflexus); assay: Test A preemergence; conditions: Amaranthus retroflexus, pre-emergence, 240 h, preemergence, read-out: Plant response rating, Pigweed
[2] = tested on: ragweed (common ragweed, Ambrosia elatior); assay: Test A preemergence; conditions: Ambrosia artemisiifolia, pre-emergence, 240 h, preemergence, read-out: Plant response rating, Ragweed
Summary of the method: (§1)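 In a loam soil and sand blend, planted seeds got a preemergence directed soil spray, and young plants at the one- to two-leaf stage, 2–10 cm high, got a postemergence application; ~10 d greenhouse hold; injury rated visually, 0 = none, 100 = complete control.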

[3] = tested on: Kochia (Kochia scoparia); assay: Test A preemergence; conditions: Bassia scoparia, pre-emergence, 240 h, preemergence, read-out: Plant response rating, Kochia
Summary of the method: as §1

[4] = tested on: giant foxtail (Setaria faberii); assay: Test A preemergence; conditions: Setaria faberi, pre-emergence, 240 h, preemergence, read-out: Plant response rating, Foxtail, Giant
Summary of the method: as §1

[5] = tested on: barnyardgrass (Echinochloa crus-galli); assay: Test A preemergence; conditions: Echinochloa crus-galli, pre-emergence, 240 h, preemergence, read-out: Plant response rating, Barnyardgrass
Summary of the method: as §1

[6] = tested on: ryegrass, Italian (Italian ryegrass, Lolium multiflorum); assay: Test A preemergence; conditions: Lolium multiflorum, pre-emergence, 240 h, preemergence, read-out: Plant response rating, Ryegrass, Italian
Summary of the method: as §1

[7] = tested on: blackgrass (Alopecurus myosuroides); assay: Test A postemergence; conditions: Alopecurus myosuroides, post-emergence, 240 h, 125 g ai/ha, postemergence; visual injury after approximately 10 d; 0 to 100 scale (0 no effect, 100 complete control); read-out: Plant response rating, Blackgrass
Summary of the method: as §1

[8] = tested on: pigweed (Amaranthus retroflexus); assay: Test A postemergence; conditions: Amaranthus retroflexus, post-emergence, 240 h, 125 g ai/ha, postemergence; visual injury after approximately 10 d; 0 to 100 scale (0 no effect, 100 complete control); read-out: Plant response rating, Pigweed
Summary of the method: as §1

[9] = tested on: ragweed (common ragweed, Ambrosia elatior); assay: Test A postemergence; conditions: Ambrosia artemisiifolia, post-emergence, 240 h, 125 g ai/ha, postemergence; visual injury after approximately 10 d; 0 to 100 scale (0 no effect, 100 complete control); read-out: Plant response rating, Ragweed
Summary of the method: as §1

[10] = tested on: corn (Zea mays); assay: Test A postemergence; conditions: Zea mays, post-emergence, 240 h, 125 g ai/ha, postemergence; visual injury after approximately 10 d; 0 to 100 scale (0 no effect, 100 complete control)
Summary of the method: as §1

[11] = tested on: Kochia (Kochia scoparia); assay: Test A postemergence; conditions: Bassia scoparia, post-emergence, 240 h, 125 g ai/ha, postemergence; visual injury after approximately 10 d; 0 to 100 scale (0 no effect, 100 complete control); read-out: Plant response rating, Kochia
Summary of the method: as §1

[12] = tested on: giant foxtail (Setaria faberii); assay: Test A postemergence; conditions: Setaria faberi, post-emergence, 240 h, 125 g ai/ha, postemergence; visual injury after approximately 10 d; 0 to 100 scale (0 no effect, 100 complete control); read-out: Plant response rating, Foxtail, Giant
Summary of the method: as §1

[13] = tested on: wheat (Triticum aestivum); assay: Test A postemergence; conditions: Triticum aestivum, post-emergence, 240 h, 125 g ai/ha, postemergence; visual injury after approximately 10 d; 0 to 100 scale (0 no effect, 100 complete control); read-out: Plant response rating, Wheat
Summary of the method: as §1

[14] = tested on: barnyardgrass (Echinochloa crus-galli); assay: Test A postemergence; conditions: Echinochloa crus-galli, post-emergence, 240 h, 125 g ai/ha, postemergence; visual injury after approximately 10 d; 0 to 100 scale (0 no effect, 100 complete control); read-out: Plant response rating, Barnyardgrass
Summary of the method: as §1

[15] = tested on: Galium (catchweed bedstraw, Galium aparine); assay: Test A postemergence; conditions: Galium, post-emergence, 240 h, 125 g ai/ha, postemergence; visual injury after approximately 10 d; 0 to 100 scale (0 no effect, 100 complete control); read-out: Plant response rating, Galium
Summary of the method: as §1

[16] = 125 g ai/ha, visual rating after approx. 10 d, 0 to 100 scale where 0 is no effect and 100 is complete control
[17] = 500 g ai/ha, 0 to 100 scale, 0 = no effect, 100 = complete control

COc1ccc([C@H]2CNC(=O)[C@@H]2C(=O)Nc2ccccc2S(C)(=O)=O)cc1F [Compound 721] was tested, and the pest or weed control at 125 g/ha [1, 16] was 0%, the pest or weed control at 500 g/ha [1, 17] was 0% and the pest or weed control at 125 g/ha [2, 16] was 0%. For the same compound, the pest or weed control at 500 g/ha [2, 17] was 50%, the pest or weed control at 125 g/ha [3, 16] was 0% and the pest or weed control at 500 g/ha [3, 17] was 0%. The pest or weed control at 125 g/ha [4, 16] was 30%, the pest or weed control at 500 g/ha [4, 17] was 90% and the pest or weed control at 125 g/ha [5, 16] was 30%. The pest or weed control at 500 g/ha [5, 17] was 80%, the pest or weed control at 125 g/ha [6, 16] was 0% and the pest or weed control at 500 g/ha [6, 17] was 20%. For the same compound, the pest or weed control at 125 g/ha [7] was 0%, the pest or weed control at 125 g/ha [8] was 0% and the pest or weed control at 125 g/ha [9] was 0%. It also gave a Corn plant response rating (crop injury, 0 = no effect, 100 = complete kill) at 125 g/ha [10] of 0%, a pest or weed control at 125 g/ha [11] of 0% and a pest or weed control at 125 g/ha [12] of 0%. It also gave a plant injury at 125 g/ha [13] of 0%, a pest or weed control at 125 g/ha [14] of 10% and a pest or weed control at 125 g/ha [15] of 20%.
